Source: publication PMC9030254, “Target Hopping from Protein Kinases to PXR: Identification of Small-Molecule Protein Kinase Inhibitors as Selective Modulators of Pregnane X Receptor from TüKIC Library” (Cells, 2022)

Assays:
Assay in all cases: Kinase profiling
Format in all cases: biochemical
HCK = target: T1, HCK (Homo sapiens, UniProt P08631)
T1 construct: purchased ProQinase (Freiburg, Germany)
Method: (§1) The analysis was performed by ProQinase (Freiburg, Germany).

PLK1 = target: T2, PLK1 (Homo sapiens, UniProt P53350)
T2 construct: purchased ProQinase (Freiburg, Germany)
T2 sequence (P53350 whole entry): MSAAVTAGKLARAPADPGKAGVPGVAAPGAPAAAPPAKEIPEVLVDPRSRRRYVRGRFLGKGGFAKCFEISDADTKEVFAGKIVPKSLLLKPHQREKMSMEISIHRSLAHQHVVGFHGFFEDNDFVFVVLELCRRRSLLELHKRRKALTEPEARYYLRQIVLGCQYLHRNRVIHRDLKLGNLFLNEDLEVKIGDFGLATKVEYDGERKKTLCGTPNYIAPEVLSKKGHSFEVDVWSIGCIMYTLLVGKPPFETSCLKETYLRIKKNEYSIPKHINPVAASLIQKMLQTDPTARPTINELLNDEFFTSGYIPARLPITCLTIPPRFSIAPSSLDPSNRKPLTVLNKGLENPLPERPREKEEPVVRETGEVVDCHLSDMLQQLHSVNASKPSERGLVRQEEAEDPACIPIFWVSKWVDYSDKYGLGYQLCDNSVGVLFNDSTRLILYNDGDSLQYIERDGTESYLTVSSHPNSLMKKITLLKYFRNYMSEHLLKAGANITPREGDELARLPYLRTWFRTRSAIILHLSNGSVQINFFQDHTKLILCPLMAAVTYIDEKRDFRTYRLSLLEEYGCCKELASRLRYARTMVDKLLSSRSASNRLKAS
Method: as §1

RPS6KA4 = target: T3, RPS6KA4 (Homo sapiens, UniProt O75676)
T3 construct: purchased ProQinase (Freiburg, Germany)
T3 sequence (O75676 whole entry): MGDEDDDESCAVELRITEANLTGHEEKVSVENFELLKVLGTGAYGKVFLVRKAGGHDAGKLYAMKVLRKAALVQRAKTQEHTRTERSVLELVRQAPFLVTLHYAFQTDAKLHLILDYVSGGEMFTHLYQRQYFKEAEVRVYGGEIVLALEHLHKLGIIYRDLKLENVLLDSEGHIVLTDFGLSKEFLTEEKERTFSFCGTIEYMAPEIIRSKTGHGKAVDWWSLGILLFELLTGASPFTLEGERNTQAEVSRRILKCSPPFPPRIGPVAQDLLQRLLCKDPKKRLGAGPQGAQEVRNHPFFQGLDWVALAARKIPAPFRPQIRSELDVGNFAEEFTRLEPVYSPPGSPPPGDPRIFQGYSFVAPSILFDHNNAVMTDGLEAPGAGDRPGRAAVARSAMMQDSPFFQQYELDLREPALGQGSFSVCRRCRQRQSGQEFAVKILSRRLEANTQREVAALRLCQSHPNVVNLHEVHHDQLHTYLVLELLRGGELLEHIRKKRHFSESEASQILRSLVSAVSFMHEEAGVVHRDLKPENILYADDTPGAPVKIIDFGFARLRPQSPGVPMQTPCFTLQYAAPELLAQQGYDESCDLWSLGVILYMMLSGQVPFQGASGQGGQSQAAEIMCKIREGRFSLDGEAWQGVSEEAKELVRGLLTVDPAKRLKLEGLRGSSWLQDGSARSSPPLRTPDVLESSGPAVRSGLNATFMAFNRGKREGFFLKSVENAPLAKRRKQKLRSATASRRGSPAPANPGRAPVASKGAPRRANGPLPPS
Method: as §1

CDK16/CycY = target: T4, CDK16/CycY (Homo sapiens, UniProt Q00536)
T4 construct: purchased ProQinase (Freiburg, Germany)
T4 sequence (Q00536 whole entry): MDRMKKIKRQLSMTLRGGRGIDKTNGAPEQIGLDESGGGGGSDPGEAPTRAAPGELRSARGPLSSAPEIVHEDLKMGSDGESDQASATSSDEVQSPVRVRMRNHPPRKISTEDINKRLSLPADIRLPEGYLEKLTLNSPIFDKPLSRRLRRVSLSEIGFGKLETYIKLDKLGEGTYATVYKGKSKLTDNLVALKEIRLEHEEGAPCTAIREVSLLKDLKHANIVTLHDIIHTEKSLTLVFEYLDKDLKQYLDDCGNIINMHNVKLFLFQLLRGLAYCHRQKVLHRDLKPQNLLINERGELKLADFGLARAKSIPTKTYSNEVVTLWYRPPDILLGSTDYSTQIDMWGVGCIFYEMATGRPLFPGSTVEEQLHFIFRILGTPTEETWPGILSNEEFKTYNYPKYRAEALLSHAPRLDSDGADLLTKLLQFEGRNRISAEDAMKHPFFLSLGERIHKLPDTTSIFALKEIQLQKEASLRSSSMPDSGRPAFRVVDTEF
T4 sequence (Q8ND76 whole entry partner): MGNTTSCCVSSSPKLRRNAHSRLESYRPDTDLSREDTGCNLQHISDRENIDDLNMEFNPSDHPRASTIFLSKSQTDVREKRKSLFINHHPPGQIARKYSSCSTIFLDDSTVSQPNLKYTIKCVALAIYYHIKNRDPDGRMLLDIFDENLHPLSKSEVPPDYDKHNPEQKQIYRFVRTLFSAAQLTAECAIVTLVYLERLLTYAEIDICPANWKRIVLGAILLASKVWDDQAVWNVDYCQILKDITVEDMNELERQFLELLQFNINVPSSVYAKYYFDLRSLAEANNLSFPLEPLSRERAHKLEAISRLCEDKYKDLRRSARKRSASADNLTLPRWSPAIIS
Method: as §1

CSF1R = target: T5, CSF1R (Homo sapiens, UniProt P07333)
T5 construct: purchased ProQinase (Freiburg, Germany)
T5 sequence (P07333 20-972): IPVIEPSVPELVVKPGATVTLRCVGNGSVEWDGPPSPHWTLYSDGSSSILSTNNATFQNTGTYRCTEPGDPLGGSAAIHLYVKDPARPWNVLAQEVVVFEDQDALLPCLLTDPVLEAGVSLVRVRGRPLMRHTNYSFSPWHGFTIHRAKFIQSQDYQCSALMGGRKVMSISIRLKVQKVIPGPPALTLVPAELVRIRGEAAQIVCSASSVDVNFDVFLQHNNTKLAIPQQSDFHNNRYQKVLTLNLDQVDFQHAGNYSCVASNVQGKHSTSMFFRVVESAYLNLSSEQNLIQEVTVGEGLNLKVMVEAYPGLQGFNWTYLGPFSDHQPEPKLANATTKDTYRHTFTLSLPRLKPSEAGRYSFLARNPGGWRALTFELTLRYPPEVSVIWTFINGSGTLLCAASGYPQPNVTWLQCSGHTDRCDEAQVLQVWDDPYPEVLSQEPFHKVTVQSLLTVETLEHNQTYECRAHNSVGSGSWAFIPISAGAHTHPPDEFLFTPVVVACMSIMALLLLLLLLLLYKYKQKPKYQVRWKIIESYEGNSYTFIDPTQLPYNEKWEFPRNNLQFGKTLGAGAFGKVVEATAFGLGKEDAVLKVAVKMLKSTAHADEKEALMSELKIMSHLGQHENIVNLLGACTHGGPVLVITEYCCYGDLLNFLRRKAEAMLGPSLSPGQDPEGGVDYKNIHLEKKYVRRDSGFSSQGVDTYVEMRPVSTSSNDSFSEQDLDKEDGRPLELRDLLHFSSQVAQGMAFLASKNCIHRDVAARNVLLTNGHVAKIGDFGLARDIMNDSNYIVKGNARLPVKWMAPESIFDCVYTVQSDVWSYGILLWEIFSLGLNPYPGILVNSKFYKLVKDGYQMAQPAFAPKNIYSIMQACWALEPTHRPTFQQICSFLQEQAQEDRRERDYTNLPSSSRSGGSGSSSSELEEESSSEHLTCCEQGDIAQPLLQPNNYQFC
Method: as §1

BMX = target: T6, BMX (Homo sapiens, UniProt P51813)
T6 construct: purchased ProQinase (Freiburg, Germany)
T6 sequence (P51813 1-675): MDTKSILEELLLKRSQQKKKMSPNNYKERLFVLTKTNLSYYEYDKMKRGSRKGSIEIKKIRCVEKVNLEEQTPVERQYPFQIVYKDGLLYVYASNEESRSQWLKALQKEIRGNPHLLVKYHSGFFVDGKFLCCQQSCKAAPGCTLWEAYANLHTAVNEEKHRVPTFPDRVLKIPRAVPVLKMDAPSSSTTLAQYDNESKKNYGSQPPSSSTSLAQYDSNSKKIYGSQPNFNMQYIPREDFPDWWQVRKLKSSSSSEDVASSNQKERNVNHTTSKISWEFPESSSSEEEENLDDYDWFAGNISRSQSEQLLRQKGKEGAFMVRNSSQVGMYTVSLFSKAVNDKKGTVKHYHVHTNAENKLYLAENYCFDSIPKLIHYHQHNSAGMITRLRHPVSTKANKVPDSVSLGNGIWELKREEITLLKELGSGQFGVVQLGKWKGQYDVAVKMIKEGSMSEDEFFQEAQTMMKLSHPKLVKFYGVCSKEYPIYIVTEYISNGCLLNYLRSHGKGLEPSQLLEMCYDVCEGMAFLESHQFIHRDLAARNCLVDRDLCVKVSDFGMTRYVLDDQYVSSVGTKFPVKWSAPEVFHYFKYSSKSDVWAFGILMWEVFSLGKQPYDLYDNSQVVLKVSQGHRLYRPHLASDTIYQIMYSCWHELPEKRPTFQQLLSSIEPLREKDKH
Method: as §1

PRKG1 = target: T7, PRKG1 (Homo sapiens, UniProt Q13976)
T7 construct: purchased ProQinase (Freiburg, Germany)
T7 sequence (Q13976 1-671): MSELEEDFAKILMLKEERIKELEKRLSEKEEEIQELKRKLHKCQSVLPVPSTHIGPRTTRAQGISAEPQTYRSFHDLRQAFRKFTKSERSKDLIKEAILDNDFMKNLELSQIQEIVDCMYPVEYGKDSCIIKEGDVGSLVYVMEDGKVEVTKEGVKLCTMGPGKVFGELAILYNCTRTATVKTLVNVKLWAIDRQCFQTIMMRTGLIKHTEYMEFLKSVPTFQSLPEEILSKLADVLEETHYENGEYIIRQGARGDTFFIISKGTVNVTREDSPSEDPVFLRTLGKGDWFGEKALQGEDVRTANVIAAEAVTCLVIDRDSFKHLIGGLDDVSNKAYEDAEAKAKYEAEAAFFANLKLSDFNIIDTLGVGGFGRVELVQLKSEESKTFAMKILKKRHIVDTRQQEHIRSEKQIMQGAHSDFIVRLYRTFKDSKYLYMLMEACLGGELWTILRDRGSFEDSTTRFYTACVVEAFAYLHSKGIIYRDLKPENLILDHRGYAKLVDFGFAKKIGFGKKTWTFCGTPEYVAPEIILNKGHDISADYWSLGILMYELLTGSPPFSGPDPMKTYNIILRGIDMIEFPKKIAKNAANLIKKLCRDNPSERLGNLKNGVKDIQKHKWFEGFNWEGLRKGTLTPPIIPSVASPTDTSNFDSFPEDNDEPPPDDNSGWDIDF
Method: as §1

PKCzeta = target: T8, PKCzeta (Homo sapiens, UniProt Q05513)
T8 construct: purchased ProQinase (Freiburg, Germany)
T8 sequence (Q05513 1-592): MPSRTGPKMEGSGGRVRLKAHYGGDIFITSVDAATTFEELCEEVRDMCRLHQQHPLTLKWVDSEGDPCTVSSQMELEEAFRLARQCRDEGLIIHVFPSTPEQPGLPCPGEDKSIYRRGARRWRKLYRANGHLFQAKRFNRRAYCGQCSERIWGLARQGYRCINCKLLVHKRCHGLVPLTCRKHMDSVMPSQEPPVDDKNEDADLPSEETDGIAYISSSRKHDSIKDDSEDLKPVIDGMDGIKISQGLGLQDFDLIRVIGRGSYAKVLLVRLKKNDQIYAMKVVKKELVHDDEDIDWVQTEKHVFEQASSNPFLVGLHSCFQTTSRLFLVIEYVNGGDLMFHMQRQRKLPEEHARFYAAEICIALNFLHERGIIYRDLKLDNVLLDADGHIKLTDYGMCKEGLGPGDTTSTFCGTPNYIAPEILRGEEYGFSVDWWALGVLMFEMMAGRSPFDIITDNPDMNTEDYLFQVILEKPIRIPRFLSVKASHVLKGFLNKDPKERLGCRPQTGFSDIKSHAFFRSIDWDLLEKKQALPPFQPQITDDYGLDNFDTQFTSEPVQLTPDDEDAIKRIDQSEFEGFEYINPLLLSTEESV
Method: as §1

SLK = target: T9, SLK (Homo sapiens, UniProt Q9H2G2)
T9 construct: purchased ProQinase (Freiburg, Germany)
T9 sequence (Q9H2G2 whole entry): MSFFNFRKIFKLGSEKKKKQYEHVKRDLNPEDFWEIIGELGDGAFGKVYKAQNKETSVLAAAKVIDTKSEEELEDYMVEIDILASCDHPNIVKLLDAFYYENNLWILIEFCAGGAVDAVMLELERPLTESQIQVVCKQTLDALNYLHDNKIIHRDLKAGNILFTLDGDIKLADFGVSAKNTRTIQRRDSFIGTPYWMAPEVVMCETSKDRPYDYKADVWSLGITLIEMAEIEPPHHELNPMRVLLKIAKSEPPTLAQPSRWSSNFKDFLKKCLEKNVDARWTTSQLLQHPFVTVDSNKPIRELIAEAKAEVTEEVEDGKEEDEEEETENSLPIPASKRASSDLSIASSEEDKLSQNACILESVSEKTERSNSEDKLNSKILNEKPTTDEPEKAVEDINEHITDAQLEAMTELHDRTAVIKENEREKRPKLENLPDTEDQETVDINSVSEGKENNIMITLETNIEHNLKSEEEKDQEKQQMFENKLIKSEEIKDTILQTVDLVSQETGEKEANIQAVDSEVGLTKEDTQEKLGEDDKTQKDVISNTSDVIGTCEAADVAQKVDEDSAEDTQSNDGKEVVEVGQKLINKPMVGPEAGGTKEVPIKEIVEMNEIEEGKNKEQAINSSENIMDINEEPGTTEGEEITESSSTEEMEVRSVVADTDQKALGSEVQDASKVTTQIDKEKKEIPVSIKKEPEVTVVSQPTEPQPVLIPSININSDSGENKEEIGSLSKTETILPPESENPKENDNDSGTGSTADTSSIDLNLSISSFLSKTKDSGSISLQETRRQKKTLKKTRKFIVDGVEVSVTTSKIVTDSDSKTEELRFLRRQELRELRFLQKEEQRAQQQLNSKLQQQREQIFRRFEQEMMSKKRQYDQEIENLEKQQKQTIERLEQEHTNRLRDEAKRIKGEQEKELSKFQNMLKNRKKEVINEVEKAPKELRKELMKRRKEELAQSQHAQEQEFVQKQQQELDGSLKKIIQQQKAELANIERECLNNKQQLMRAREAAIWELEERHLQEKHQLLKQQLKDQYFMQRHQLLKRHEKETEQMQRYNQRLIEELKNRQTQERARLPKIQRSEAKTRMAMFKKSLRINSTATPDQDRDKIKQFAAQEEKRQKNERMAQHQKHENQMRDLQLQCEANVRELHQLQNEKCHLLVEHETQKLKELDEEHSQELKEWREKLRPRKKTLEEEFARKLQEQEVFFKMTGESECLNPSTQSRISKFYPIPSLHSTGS
Method: as §1

T1 sequence (P08631 whole entry): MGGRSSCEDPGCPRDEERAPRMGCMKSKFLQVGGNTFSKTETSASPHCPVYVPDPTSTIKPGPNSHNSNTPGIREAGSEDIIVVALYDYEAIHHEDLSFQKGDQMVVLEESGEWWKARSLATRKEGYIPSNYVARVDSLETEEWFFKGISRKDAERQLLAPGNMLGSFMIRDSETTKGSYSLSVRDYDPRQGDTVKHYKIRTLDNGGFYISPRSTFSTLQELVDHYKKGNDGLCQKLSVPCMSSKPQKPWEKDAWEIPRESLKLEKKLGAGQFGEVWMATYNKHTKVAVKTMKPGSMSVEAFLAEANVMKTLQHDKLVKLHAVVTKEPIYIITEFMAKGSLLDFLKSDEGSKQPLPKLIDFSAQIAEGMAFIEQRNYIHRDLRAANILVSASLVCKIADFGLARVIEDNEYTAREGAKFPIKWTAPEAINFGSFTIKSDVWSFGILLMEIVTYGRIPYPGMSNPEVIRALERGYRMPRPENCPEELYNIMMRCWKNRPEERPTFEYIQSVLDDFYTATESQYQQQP

In the case of O=C(Nc1ccc(F)c(Nc2ccc3c(c2)CCCCC3=O)c1)c1cccc(F)c1 [Compound 109], the Residual activity (HCK; 1.0E-05 M) is reported as 76 % of control, the Residual activity (HCK; 1.0E-06 M) is reported as 99 % of control and the Residual activity (PLK1; 1.0E-05 M) is reported as 96 % of control. For the same compound, the Residual activity (PLK1; 1.0E-06 M) was 94 % of control, the Residual activity (RPS6KA4; 1.0E-05 M) was 95 % of control and the Residual activity (RPS6KA4; 1.0E-06 M) was 95 % of control. For the same compound, the Residual activity (CDK16/CycY; 1.0E-05 M) was 100 % of control, the Residual activity (CDK16/CycY; 1.0E-06 M) was 96 % of control and the Residual activity (CSF1R; 1.0E-05 M) was 94 % of control. The Residual activity (CSF1R; 1.0E-06 M) was 103 % of control, the Residual activity (BMX; 1.0E-05 M) was 83 % of control and the Residual activity (BMX; 1.0E-06 M) was 100 % of control. For the same compound, the Residual activity (PRKG1; 1.0E-05 M) was 90 % of control, the Residual activity (PRKG1; 1.0E-06 M) was 113 % of control and the Residual activity (PKCzeta; 1.0E-05 M) was 96 % of control. For the same compound, the Residual activity (PKCzeta; 1.0E-06 M) was 87 % of control, the Residual activity (SLK; 1.0E-05 M) was 91 % of control and the Residual activity (SLK; 1.0E-06 M) was 94 % of control.

O=C(Cc1ccccc1)Nc1ccc(F)c(Nc2ccc3c(c2)CCCCC3=O)c1 [Compound 100] was tested, and the Residual activity (HCK; 1.0E-05 M) was 95 % of control, the Residual activity (HCK; 1.0E-06 M) was 107 % of control and the Residual activity (PLK1; 1.0E-05 M) was 90 % of control. The Residual activity (PLK1; 1.0E-06 M) was 103 % of control, the Residual activity (RPS6KA4; 1.0E-05 M) was 93 % of control and the Residual activity (RPS6KA4; 1.0E-06 M) was 93 % of control. For the same compound, the Residual activity (CDK16/CycY; 1.0E-05 M) was 101 % of control, the Residual activity (CDK16/CycY; 1.0E-06 M) was 99 % of control and the Residual activity (CSF1R; 1.0E-05 M) was 96 % of control. For the same compound, the Residual activity (CSF1R; 1.0E-06 M) was 100 % of control, the Residual activity (BMX; 1.0E-05 M) was 71 % of control and the Residual activity (BMX; 1.0E-06 M) was 111 % of control. The Residual activity (PRKG1; 1.0E-05 M) was 96 % of control, the Residual activity (PRKG1; 1.0E-06 M) was 120 % of control and the Residual activity (PKCzeta; 1.0E-05 M) was 102 % of control. The Residual activity (PKCzeta; 1.0E-06 M) was 92 % of control, the Residual activity (SLK; 1.0E-05 M) was 93 % of control and the Residual activity (SLK; 1.0E-06 M) was 98 % of control.
